{
  "source": "patent US10925855B2",
  "about": "“Compositions comprising water dispersible nanoparticles of a retinoid compound” (GALDERMA RESEARCH & DEVELOPMENT, priority 2015, dated 2021)",
  "format_in_all_cases": "physicochemical",
  "key": {"[1]": {"test": "Chemical stability by HPLC", "method": "Chemical stability of nanosized compound A formulae were investigated by HPLC measurements. They were performed in an Agilent 1100 HPLC waters coupled with ZQ2000 MSD, C18, Phenomenex Gemini-NX 3 micron, 100×3 mm column."}, "Precipitation test": {"test": "Precipitation test", "details": "every tested organic solvent at 1 mg/mL concentration", "method": "1 mg/ml solutions of compound A were prepared in each appropriate solvent."}, "[2]": {"test": "Stabilizer screening (colloid stability after precipitation)", "details": "Compound A 1.0 mg", "method": "If the colloid solution was stable over 2 hours (no aggregation, sedimentation, crystal forming), and no aggregation occurred, the sample was lyophilized. • If precipitation occurred, however the colloid solution was not stable over the whole solid formulation procedure, other stabilizers were tested. Results"}},
  "data": [
    {"smiles": "CC(C)(C)c1cc(-c2cc(-c3ccc(C(=O)O)cc3)ccc2OCCO)ccc1N1CCCC1", "note": "[Compound A, 3″-tert-butyl-4′-(2-hydroxyethoxy)-4″-pyrrolidin-1-yl[1,1′;3′,1″]-terphenyl-4-carboxylic acid]", "values": [
      {"measurement": "decomposition of the active ingredient in HPLC analysis", "setting": "[1]; 0.001 M sodium hydroxide solution as antisolvent", "value": "decomposition of the active could not be observed"},
      {"measurement": "decomposition of the active ingredient in HPLC analysis", "setting": "[1]; 0.01 M sodium hydroxide solution as antisolvent", "value": "decomposition of the active could not be observed"},
      {"measurement": "decomposition of the active ingredient in HPLC analysis", "setting": "[1]; 0.1 M sodium hydroxide used as antisolvent (data not shown)", "value": "Significant decomposition"},
      {"measurement": "precipitation on addition of anti-solvent", "setting": "Precipitation test", "value": "precipitated"},
      {"measurement": "Observation", "setting": "[2]; 2 mg Klucel EF, 1 mL EtOH, 4 mL water", "value": "Aggregated"},
      {"measurement": "Observation", "setting": "[2]; 2 mg Klucel EF, 1 mL IPA, 4 mL water", "value": "Aggregated"},
      {"measurement": "Observation", "setting": "[2]; 2 mg Klucel EF, 1 mL MeOH, 4 mL water", "value": "Aggregated"},
      {"measurement": "Observation", "setting": "[2]; 2 mg Klucel EF, 1 mL THF, 4 mL water", "value": "Aggregated"},
      {"measurement": "Observation", "setting": "[2]; 2 mg Klucel LF, 1 mL EtOH, 4 mL water", "value": "Aggregated"},
      {"measurement": "Observation", "setting": "[2]; 2 mg Klucel LF, 1 mL IPA, 4 mL water", "value": "Aggregated"},
      {"measurement": "Observation", "setting": "[2]; 2 mg Klucel LF, 1 mL MeOH, 4 mL water", "value": "Aggregated"},
      {"measurement": "Observation", "setting": "[2]; 2 mg Klucel LF, 1 mL THF, 4 mL water", "value": "Aggregated"},
      {"measurement": "Observation", "setting": "[2]; 2 mg Lutrol F 127, 1 mL ACE, 4 mL water", "value": "Aggregated immediately"},
      {"measurement": "Observation", "setting": "[2]; 2 mg Lutrol F 127, 1 mL EtOH, 4 mL water", "value": "Aggregated"},
      {"measurement": "Observation", "setting": "[2]; 2 mg Lutrol F 127, 1 mL MeOH, 4 mL water", "value": "Cloudy immediately"},
      {"measurement": "Observation", "setting": "[2]; 2 mg Lutrol F 127, 1 mL THF, 5 mL water", "value": "Aggregated"},
      {"measurement": "Observation: Aggregated within", "setting": "[2]; 2 mg Luviskol VA64, 1 mL ACE, 4 mL water", "value": "Aggregated within 5 min"},
      {"measurement": "Observation: Colloid, Stable for", "setting": "[2]; 2 mg Luviskol VA64, 1 mL EtOH, 4 mL water", "value": "Colloid, Stable for 30 min"},
      {"measurement": "Observation", "setting": "[2]; 2 mg Luviskol VA64, 1 mL EtOH, 7 mL 0.05 mg/mL BAC solution", "value": "Aggregated immediately"},
      {"measurement": "Observation", "setting": "[2]; 2 mg Luviskol VA64, 1 mL EtOH, 7 mL 0.05 mg/mL DSS solution", "value": "Aggregated immediately"},
      {"measurement": "Observation", "setting": "[2]; 2 mg Luviskol VA64, 1 mL EtOH, 7 mL 0.05 mg/mL Mannitol solution", "value": "Aggregated immediately"},
      {"measurement": "Observation", "setting": "[2]; 2 mg Luviskol VA64, 1 mL EtOH, 7 mL 0.05 mg/mL NaOAc solution", "value": "Aggregated immediately"},
      {"measurement": "Observation", "setting": "[2]; 2 mg Luviskol VA64, 1 mL EtOH, 7 mL 0.05 mg/mL SDS solution", "value": "Aggregated immediately"},
      {"measurement": "Observation", "setting": "[2]; 2 mg Luviskol VA64, 1 mL EtOH, 7 mL 0.05 mg/mL citric acid solution", "value": "Aggregated immediately"},
      {"measurement": "Observation", "setting": "[2]; 2 mg Luviskol VA64, 1 mL EtOH, 7 mL 0.5 mg/mL BAC solution", "value": "Aggregated immediately"},
      {"measurement": "Observation: Aggregated within", "setting": "[2]; 2 mg Luviskol VA64, 1 mL EtOH, 7 mL 0.5 mg/mL DSS solution", "value": "Aggregated within 1 hour"},
      {"measurement": "Observation", "setting": "[2]; 2 mg Luviskol VA64, 1 mL EtOH, 7 mL 0.5 mg/mL Mannitol solution", "value": "Aggregated immediately"},
      {"measurement": "Observation: Stable for", "setting": "[2]; 2 mg Luviskol VA64, 1 mL EtOH, 7 mL 0.5 mg/mL NaOAc solution, at RT", "value": "Stable for 1 day at RT"},
      {"measurement": "Observation: Aggregated within", "setting": "[2]; 2 mg Luviskol VA64, 1 mL EtOH, 7 mL 0.5 mg/mL SDS solution", "value": "Aggregated within 1 hour"},
      {"measurement": "Observation", "setting": "[2]; 2 mg Luviskol VA64, 1 mL EtOH, 7 mL 0.5 mg/mL citric acid solution", "value": "Aggregated immediately"},
      {"measurement": "Observation", "setting": "[2]; 2 mg Luviskol VA64, 1 mL IPA, 4 mL water", "value": "Aggregated"},
      {"measurement": "Observation: Aggregated after", "setting": "[2]; 2 mg Luviskol VA64, 1 mL MeOH, 4 mL water", "value": "Aggregated after 25 min"},
      {"measurement": "Observation", "setting": "[2]; 2 mg Luviskol VA64, 1 mL THF, 4 mL water", "value": "Aggregated"},
      {"measurement": "Observation", "setting": "[2]; 2 mg PEG2000, 1 mL ACE, 4 mL water", "value": "Aggregated immediately"},
      {"measurement": "Observation", "setting": "[2]; 2 mg PEG2000, 1 mL EtOH, 4 mL water", "value": "Aggregated"},
      {"measurement": "Observation", "setting": "[2]; 2 mg PEG2000, 1 mL IPA, 4 mL water", "value": "Aggregated"},
      {"measurement": "Observation", "setting": "[2]; 2 mg PEG2000, 1 mL MeOH, 4 mL water", "value": "Aggregated"},
      {"measurement": "Observation", "setting": "[2]; 2 mg PEG2000, 1 mL THF, 4 mL water", "value": "Aggregated"},
      {"measurement": "Observation", "setting": "[2]; 2 mg PEG6000, 1 mL ACE, 4 mL water", "value": "Aggregated immediately"},
      {"measurement": "Observation", "setting": "[2]; 2 mg PEG6000, 1 mL EtOH, 4 mL water", "value": "Aggregated"},
      {"measurement": "Observation", "setting": "[2]; 2 mg PEG6000, 1 mL MeOH, 4 mL water", "value": "Aggregated"},
      {"measurement": "Observation: Aggregated within", "setting": "[2]; 2 mg PEOX50, 1 mL ACE, 4 mL water", "value": "Aggregated within 5 min"},
      {"measurement": "Observation: Colloid, Stable for", "setting": "[2]; 2 mg PEOX50, 1 mL EtOH, 4 mL water", "value": "Colloid, Stable for 10 min"},
      {"measurement": "Observation: Aggregated within", "setting": "[2]; 2 mg PEOX50, 1 mL EtOH, 7 mL 0.5 mg/mL DSS solution", "value": "Aggregated within 1 hour"},
      {"measurement": "Observation: Aggregated within", "setting": "[2]; 2 mg PEOX50, 1 mL EtOH, 7 mL 0.5 mg/mL NaOAc solution", "value": "Aggregated within 1 hour"},
      {"measurement": "Observation: Aggregated within", "setting": "[2]; 2 mg PEOX50, 1 mL EtOH, 7 mL 0.5 mg/mL SDS solution", "value": "Aggregated within 1 hour"},
      {"measurement": "Observation", "setting": "[2]; 2 mg PEOX50, 1 mL EtOH, 7 mL 0.5 mg/mL citric acid solution", "value": "Aggregated immediately"},
      {"measurement": "Observation", "setting": "[2]; 2 mg PEOX50, 1 mL IPA, 4 mL water", "value": "Aggregated"},
      {"measurement": "Observation", "setting": "[2]; 2 mg PEOX50, 1 mL MeOH, 4 mL water", "value": "Aggregated"},
      {"measurement": "Observation", "setting": "[2]; 2 mg PEOX50, 1 mL THF, 4 mL water", "value": "Aggregated"},
      {"measurement": "Observation: Aggregated within", "setting": "[2]; 2 mg PEOX500, 1 mL ACE, 4 mL water", "value": "Aggregated within 5 min"},
      {"measurement": "Observation", "setting": "[2]; 2 mg PEOX500, 1 mL EtOH, 4 mL water", "value": "Aggregated"},
      {"measurement": "Observation", "setting": "[2]; 2 mg PEOX500, 1 mL IPA, 4 mL water", "value": "Aggregated"},
      {"measurement": "Observation", "setting": "[2]; 2 mg PEOX500, 1 mL MeOH, 4 mL water", "value": "Aggregated"},
      {"measurement": "Observation", "setting": "[2]; 2 mg PEOX500, 1 mL THF, 4 mL water", "value": "Aggregated"},
      {"measurement": "Observation", "setting": "[2]; 2 mg PMAMVE, 1 mL EtOH, 4 mL water", "value": "Aggregated"},
      {"measurement": "Observation", "setting": "[2]; 2 mg PMAMVE, 1 mL MeOH, 4 mL water", "value": "Aggregated"},
      {"measurement": "Observation: Colloid, Stable for", "setting": "[2]; 2 mg PVP10, 1 mL EtOH, 4 mL water", "value": "Colloid, Stable for 30 min"},
      {"measurement": "Observation", "setting": "[2]; 2 mg PVP10, 1 mL EtOH, 7 mL 0.05 mg/mL BAC solution", "value": "Aggregated immediately"},
      {"measurement": "Observation", "setting": "[2]; 2 mg PVP10, 1 mL EtOH, 7 mL 0.05 mg/mL DSS solution", "value": "Aggregated immediately"},
      {"measurement": "Observation", "setting": "[2]; 2 mg PVP10, 1 mL EtOH, 7 mL 0.05 mg/mL Mannitol solution", "value": "Aggregated immediately"},
      {"measurement": "Observation", "setting": "[2]; 2 mg PVP10, 1 mL EtOH, 7 mL 0.05 mg/mL NaOAc solution", "value": "Aggregated immediately"},
      {"measurement": "Observation", "setting": "[2]; 2 mg PVP10, 1 mL EtOH, 7 mL 0.05 mg/mL SDS solution", "value": "Aggregated immediately"},
      {"measurement": "Observation", "setting": "[2]; 2 mg PVP10, 1 mL EtOH, 7 mL 0.05 mg/mL citric acid solution", "value": "Aggregated immediately"},
      {"measurement": "Observation", "setting": "[2]; 2 mg PVP10, 1 mL EtOH, 7 mL 0.5 mg/mL BAC solution", "value": "Aggregated immediately"},
      {"measurement": "Observation: Aggregated within", "setting": "[2]; 2 mg PVP10, 1 mL EtOH, 7 mL 0.5 mg/mL DSS solution", "value": "Aggregated within 1 hour"},
      {"measurement": "Observation", "setting": "[2]; 2 mg PVP10, 1 mL EtOH, 7 mL 0.5 mg/mL Mannitol solution", "value": "Aggregated immediately"},
      {"measurement": "Observation", "setting": "[2]; 2 mg PVP10, 1 mL EtOH, 7 mL 0.5 mg/mL NaOAc solution", "value": "Aggregated immediately"},
      {"measurement": "Observation: Aggregated within", "setting": "[2]; 2 mg PVP10, 1 mL EtOH, 7 mL 0.5 mg/mL SDS solution", "value": "Aggregated within 1 hour"}
    ]}
  ]
}
